Test results reported in patent EP2022796A1, “Amorphous ciclesonide” (Nycomed GmbH, priority 2007, dated 2009).
In brackets after ≈: the same amount, converted by molar mass.

Columns and labels:
Assay type in all cases: physicochemical
[1] = Dissolution experiments in water (dissolution kinetics); conditions: 37°C
Protocol: For each timepoint (5 min, 10 min, 20 min, 35 min, 60 min and 1440 min) of the dissolution experiment, three samples each of X-ray amorphous and crystalline ciclesonide were prepared by weighing a defined amount of in each case about 15 mg into a 250 ml conical wide-necked Erlenmeyer flask and stirring (850 rpm, glass coated magnetic stir bar, having a length of 2.4 cm and a diameter of 0.59 cm) the samples at 37°C in 100 ml water (Millipore quality, ELIX 3, Gradient A 10, pH 5.92 - 6.00). The moment of the addition of water was defined as to. The tempering of the samples was performed using an air bath. After the desired stirring time, the complete samples were filtered through a 0.2 µm membrane filter (Schleicher & Schuell, RC 0.2 µm Spartan 30/A) and concentrated on a Sep-Pak cartridge (Waters Sep-Pak cartridge C18, WAT051910). The cartridge was then eluted with ethanol (gradient grade, Merck). The ciclesonide in the ethanol solution was then quantified by HPLC (LaChrom®-HPLC System Series 7000, column: Zorbax SB phenyl, eluent: water/ethanol 38 % : 62 % (v/v) isocratic, column temperature: 60°C, injection volume: 50 µL, UV-detection at 243 nm) against an external standard.

[2] = Saturation solubility experiments in water; conditions: 37°C, 30 min ultrasonic treatment then stirred 24 hours; for saturation solubility: 1440 min
Protocol: Defined amounts of in each case about 14 to 25 mg of X-ray amorphous or crystalline ciclesonide were weighed into a conical Erlenmeyer flask equipped with a rubber stopper (n = 3). 100 ml of water (Millipore quality, ELIX 3, Gradient A 10, pH 5.92 - 6.00) were added and 30 minutes of ultrasonic treatment was applied to the samples. Afterwards the samples were stirred in the dark for 24 hours at 37°C in a water bath. After the desired stirring time, each sample was filtered through a 0.2 µm membrane filter (Schleicher & Schuell, RC 0.2 µm Spartan 30/A) and concentrated on a Sep-Pak cartridge (Waters Sep-Pak cartridge C18, WAT051910). Then the cartridge was eluted with ethanol (gradient grade, Merck). The ciclesonide in the ethanol solution was then quantified by HPLC (LaChrom®-HPLC System Series 7000, column: Zorbax SB phenyl, eluent: water/ethanol 38 % : 62 % (v/v) isocratic, column temperature: 60°C, injection volume: 50 µL, UV-detection at 243 nm) against an external standard.

[3] = Stability under elevated pressure (recrystallization); conditions: pressure of up to 2.500 for 5 min
Text: Such a stability against pressure is particularly desirable when a pharmaceutical agent is used for preparation of solid pharmaceutical compositions such as tablets or granules.

[4] = Hygroscopicity
[5] = listed as crystalline form of ciclesonide

Structure (SMILES): CC(C)C(=O)OCC(=O)C12OC(C3CCCCC3)OC1CC1C3CCC4=CC(=O)C=CC4(C)C3C(O)CC12C (stereo not drawn) [amorphous ciclesonide, 16,17-[(Cyclohexyl-methylene)bis(oxy)]-11-hydroxy-21-(2-methyl-1-oxopropoxy)-pregna-1,4-diene-3,20-dione[11β,16α]]
- concentration of dissolved ingredient within 5 minutes ([1]; 5 minutes): 290 µg/L
- concentration of dissolved ingredient after 20 minutes ([1]; 20 minutes): 340 µg/L
- concentration of dissolved ingredient relative to crystalline ciclesonide after 1 hour ([1]; after 1 hour, amorphous versus crystalline): about sevenfold higher
- concentration of dissolved ciclesonide after 24 hours [1]: 105 µg/L
- saturation solubility [2]: 91.6 ± 5.2 µg/L
- stability under pressure (signs of recrystallization) [3]: did not show any signs of recrystallization
- hygroscopicity [4]: not hygroscopic

Structure (SMILES): CC(C)C(=O)OCC(=O)C12OC(C3CCCCC3)OC1CC1C3CCC4=CC(=O)C=CC4(C)C3C(O)CC12C (stereo not drawn) [crystalline ciclesonide, 16,17-[(Cyclohexyl-methylene)bis(oxy)]-11-hydroxy-21-(2-methyl-1-oxopropoxy)-pregna-1,4-diene-3,20-dione[11β,16α], reference compound]
- solubility at 1 h ([1]; after 1 hour): ~0.05 µg/mL (≈ 0.0925 µM)
- concentration of dissolved ciclesonide after 24 hours [1]: 64 µg/L
- concentration of dissolved ciclesonide after 24 hours [1, 5]: about 64 µg/l
- solubility at 24 h [2]: 0.091 µg/mL (≈ 0.168 µM)
- saturation solubility [2]: 90.1 ± 2.2 µg/L
- saturation solubility [2, 5]: about 91 µg/l
